Measured values published in paper PMC12631574, “Structure–activity relationships of hydrophobic small molecule irreversible inhibitors of tissue transglutaminase” (RSC Medicinal Chemistry, 2025).

Target: T1, tissue transglutaminase (TG2), C-terminal His-tag TG2 (Homo sapiens, UniProt P21980)
T1 construct: host or cells: Novagen Rosetta 2 (DE3) E. coli
T1 sequence (P21980 1-687): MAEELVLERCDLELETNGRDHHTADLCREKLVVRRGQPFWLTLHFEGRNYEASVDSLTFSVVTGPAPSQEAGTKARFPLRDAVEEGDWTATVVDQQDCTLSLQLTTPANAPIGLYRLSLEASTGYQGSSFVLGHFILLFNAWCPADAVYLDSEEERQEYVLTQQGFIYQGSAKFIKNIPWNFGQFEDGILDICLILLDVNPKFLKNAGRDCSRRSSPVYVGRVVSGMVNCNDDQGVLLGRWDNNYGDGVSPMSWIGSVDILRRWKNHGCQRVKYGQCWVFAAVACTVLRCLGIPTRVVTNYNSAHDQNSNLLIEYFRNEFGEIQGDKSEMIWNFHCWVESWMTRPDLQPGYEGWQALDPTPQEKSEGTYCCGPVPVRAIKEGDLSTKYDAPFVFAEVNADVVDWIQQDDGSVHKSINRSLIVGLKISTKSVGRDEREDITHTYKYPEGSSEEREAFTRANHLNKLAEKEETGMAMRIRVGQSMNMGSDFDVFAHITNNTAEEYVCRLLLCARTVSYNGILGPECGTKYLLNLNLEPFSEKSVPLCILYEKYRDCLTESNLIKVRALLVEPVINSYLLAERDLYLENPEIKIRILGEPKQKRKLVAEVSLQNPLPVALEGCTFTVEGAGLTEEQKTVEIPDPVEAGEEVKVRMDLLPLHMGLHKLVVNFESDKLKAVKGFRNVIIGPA
Experiment: continuous AL5 hydrolysis assay of irreversible TG2 inhibition (kobs vs [I]/α)
Type: biochemical

[1] = irreversible inhibition, AL5 100 μM, pH 6.9, 25 °C, triplicate
[2] = supplement, kinetics data and fitting

SMILES	kinact	KI (inactivation) [1]	KI (inactivation) [2]	kinact/KI [2]
C=CC(=O)NCC(=O)N1CCN(C(=O)C2CC2)CC1 [Compound 6a, N-2-[4-[(Cyclopropanecarbonyl)-1-piperazinyl]-2-oxoethyl]propenamide]	0.00593 s⁻¹	23.5 ± 6.5 µM	23.5 ± 6.5 µM	15.2 ± 4.6 × 103 M-1min-1
C=CC(=O)NCC(=O)N1CCN(C(=O)C2CCC2)CC1 [Compound 6b, N-2-[4-[(Cyclobutanecarbonyl)-1-piperazinyl]-2-oxoethyl]propenamide]	0.00842 s⁻¹	20.2 ± 3.5 µM	20.2 ± 3.5 µM	25.0 ± 4.7 × 103 M-1min-1
C=CC(=O)NCC(=O)N1CCN(C(=O)C2CCCC2)CC1 [Compound 6c, N-2-[4-[(Cyclopentanecarbonyl)-1-piperazinyl]-2-oxoethyl]propenamide]	0.00868 s⁻¹	13 ± 1.6 µM	13 ± 1.6 µM	40.0 ± 5.3 × 103 M-1min-1
C=CC(=O)NCC(=O)N1CCN(C(=O)C2CCCCC2)CC1 [Compound 6d, N-2-[4-[(Cyclohexanecarbonyl)-1-piperazinyl]-2-oxoethyl]propenamide]	0.0177 s⁻¹	7.1 ± 1.3 µM	7.14 ± 1.34 µM	149 ± 31 × 103 M-1min-1
C=CC(=O)NCC(=O)N1CCN(C(=O)C2CCCCCC2)CC1 [Compound 6e, N-2-[4-[(Cycloheptanecarbonyl)-1-piperazinyl]-2-oxoethyl]propenamide]	0.0099 s⁻¹	21.5 ± 11 µM	21.5 ± 11 µM	27.6 ± 16.1 × 103 M-1min-1
C=CC(=O)NCC(=O)N1CCN(C(=O)c2ccccc2)CC1 [Compound 6f, N-2-[4-[(Benzoyl)-1-piperazinyl]-2-oxoethyl]propenamide]	0.00827 s⁻¹	8.1 ± 2.5 µM	8.12 ± 2.47 µM	61.1 ± 20.0 × 103 M-1min-1
C=CC(=O)NCC(=O)N1CCN(C(=O)c2ccccc2-c2ccccc2)CC1 [Compound 7a, N-2-[4-[((2-Biphenyl)carbonyl)-1-piperazinyl]-2-oxoethyl]propenamide]	0.00958 s⁻¹	3.2 ± 1 µM	3.23 ± 1.14 µM	178.0 ± 68.6 × 103 M-1min-1
C=CC(=O)NCC(=O)N1CCN(C(=O)c2cccc(-c3ccccc3)c2)CC1 [Compound 7b, N-2-[4-[((3-Biphenyl)carbonyl)-1-piperazinyl]-2-oxoethyl]propenamide]	0.0118 s⁻¹	5.3 ± 1.4 µM	5.29 ± 1.39 µM	133.9 ± 38.4 × 103 M-1min-1
C=CC(=O)NCC(=O)N1CCN(C(=O)c2ccc(-c3ccccc3)cc2)CC1 [Compound 7c, N-2-[4-[((4-Biphenyl)carbonyl)-1-piperazinyl]-2-oxoethyl]propenamide]	0.0118 s⁻¹	41.1 ± 32.2 µM	41.1 ± 32.3 µM	17.2 ± 15.5 × 103 M-1min-1
C=CC(=O)NCC(=O)N1CCN(C(=O)c2ccccc2-c2ccccc2C)CC1 [Compound 21a, N-2-[4-[((2′-Methyl-2-biphenyl)carbonyl)-1-piperazinyl]-2-oxoethyl]propenamide]	0.00955 s⁻¹	4.8 ± 1 µM	4.85 ± 1.02 µM	118 ± 27 × 103 M-1min-1
C=CC(=O)NCC(=O)N1CCN(C(=O)c2ccccc2-c2cccc(C)c2)CC1 [Compound 21b, N-2-[4-[((3′-Methyl-2-biphenyl)carbonyl)-1-piperazinyl]-2-oxoethyl]propenamide]	0.00902 s⁻¹	2.6 ± 0.7 µM	2.64 ± 0.72 µM	205 ± 60 × 103 M-1min-1
C=CC(=O)NCC(=O)N1CCN(C(=O)c2ccccc2-c2ccc(C)cc2)CC1 [Compound 21c, N-2-[4-[((4′-Methyl-2-biphenyl)carbonyl)-1-piperazinyl]-2-oxoethyl]propenamide]	0.00807 s⁻¹	8.3 ± 2.1 µM	8.28 ± 2.08 µM	58.5 ± 16.2 × 103 M-1min-1
C=CC(=O)NCC(=O)N1CCN(C(=O)c2cccc(-c3ccccc3C)c2)CC1 [Compound 21d, N-2-[4-[((2′-Methyl-3-biphenyl)carbonyl)-1-piperazinyl]-2-oxoethyl]propenamide]	0.012 s⁻¹	1.1 ± 0.1 µM	1.13 ± 0.099 µM	636 ± 58 × 103 M-1min-1
C=CC(=O)NCC(=O)N1CCN(C(=O)c2cccc(-c3cccc(C)c3)c2)CC1 [Compound 21e, N-2-[4-[((3′-Methyl-3-biphenyl)carbonyl)-1-piperazinyl]-2-oxoethyl]propenamide]	0.0104 s⁻¹	4.4 ± 2.8 µM	4.42 ± 2.83 µM	141 ± 98 × 103 M-1min-1
C=CC(=O)NCC(=O)N1CCN(C(=O)c2cccc(-c3ccc(C)cc3)c2)CC1 [Compound 21f, N-2-[4-[((4′-Methyl-3-biphenyl)carbonyl)-1-piperazinyl]-2-oxoethyl]propenamide]	0.0092 s⁻¹	2.3 ± 0.6 µM	2.29 ± 0.66 µM	241 ± 74 × 103 M-1min-1
C=CC(=O)NCC(=O)N1CCN(C(=O)c2ccc(-c3ccccc3C)cc2)CC1 [Compound 21g, N-2-[4-[((2′-Methyl-4-biphenyl)carbonyl)-1-piperazinyl]-2-oxoethyl]propenamide]	0.0217 s⁻¹	54.1 ± 14.6 µM	54.1 ± 14.6 µM	24.1 ± 7.3 × 103 M-1min-1
C=CC(=O)NCC(=O)N1CCN(C(=O)c2ccc(-c3cccc(C)c3)cc2)CC1 [Compound 21h, N-2-[4-[((3′-Methyl-4-biphenyl)carbonyl)-1-piperazinyl]-2-oxoethyl]propenamide]	0.0148 s⁻¹	38.9 ± 17.7 µM	38.9 ± 17.7 µM	22.8 ± 11.7 × 103 M-1min-1
C=CC(=O)NCC(=O)N1CCN(C(=O)c2ccccc2Cc2ccccc2)CC1 [Compound 22a, N-2-[4-[((2-Benzylphenyl)carbonyl)-1-piperazinyl]-2-oxoethyl]propenamide]	0.0146 s⁻¹	14.2 ± 3.3 µM	14.2 ± 3.3 µM	61.3 ± 15.9 × 103 M-1min-1
C=CC(=O)NCC(=O)N1CCN(C(=O)c2ccccc2Oc2ccccc2)CC1 [Compound 22b, N-2-[4-[((2-Phenoxyphenyl)carbonyl)-1-piperazinyl]-2-oxoethyl]propenamide]	0.0143 s⁻¹	9.1 ± 0.8 µM	9.06 ± 0.8 µM	94.8 ± 9.0 × 103 M-1min-1
C=CC(=O)NCC(=O)N1CCN(C(=O)c2ccccc2Nc2ccccc2)CC1 [Compound 22c, N-2-[4-[(((2-Phenylamino)phenyl)carbonyl)-1-piperazinyl]-2-oxoethyl]propenamide]	0.0119 s⁻¹	6.4 ± 0.7 µM	6.38 ± 0.7 µM	112 ± 14 × 103 M-1min-1
C=CC(=O)NCC(=O)N1CCN(C(=O)c2cccc(Cc3ccccc3)c2)CC1 [Compound 22d, N-2-[4-[((3-benzylphenyl)carbonyl)-1-piperazinyl]-2-oxoethyl]propenamide]	0.0168 s⁻¹	8.8 ± 2.7 µM	8.84 ± 2.72 µM	114 ± 38 × 103 M-1min-1
C=CC(=O)NCC(=O)N1CCN(C(=O)c2cccc(Oc3ccccc3)c2)CC1 [Compound 22e, N-2-[4-[((3-Phenoxyphenyl)carbonyl)-1-piperazinyl]-2-oxoethyl]propenamide]	0.0223 s⁻¹	11.9 ± 4 µM	11.9 ± 4 µM	112 ± 41 × 103 M-1min-1
C=CC(=O)NCC(=O)N1CCN(C(=O)c2cccc(Nc3ccccc3)c2)CC1 [Compound 22f, N-2-[4-[(((3-Phenylamino)phenyl)carbonyl)-1-piperazinyl]-2-oxoethyl]propenamide]	0.0165 s⁻¹	31.7 ± 8.6 µM	31.7 ± 8.6 µM	31.2 ± 10.0 × 103 M-1min-1
C=CC(=O)NCC(=O)N1CCN(C(=O)c2ccc(Cc3ccccc3)cc2)CC1 [Compound 22g, N-2-[4-[((4-Benzylphenyl)carbonyl)-1-piperazinyl]-2-oxoethyl]propenamide]	0.0253 s⁻¹	58.1 ± 9.4 µM	58.1 ± 9.4 µM	26.1 ± 4.9 × 103 M-1min-1
C=CC(=O)NCC(=O)N1CCN(C(=O)c2ccc(Nc3ccccc3)cc2)CC1 [Compound 22i, N-2-[4-[(((4-Phenylamino)phenyl)carbonyl)-1-piperazinyl]-2-oxoethyl]propenamide]	0.0255 s⁻¹	92.8 ± 43.3 µM	92.8 ± 43.3 µM	16.5 ± 9.4 × 103 M-1min-1
C=CC(=O)NCC(=O)N1CCN(C(=O)C23CC4CC(CC(F)(C4)C2)C3)CC1 [Compound 25a, N-2-[4-[(3-Fluoroadamantanecarbonyl)-1-piperazinyl]-2-oxoethyl]propenamide]	–	3.15 ± 0.33 µM	3.15 ± 0.33 µM	–
C=CC(=O)NCC(=O)N1CCN(S(=O)(=O)C23CC4CC(CC(C4)C2)C3)CC1 [Compound 38, N-[2-(4-((Adamantan-1-yl)sulfonyl)piperazin-1-yl)-2-oxoethyl]propenamide]	0.0162 s⁻¹	7.56 ± 1.87 µM	7.56 ± 1.87 µM	129 ± 36 × 103 M-1min-1
